This note sets out measurements from ChEMBL document CHEMBL4373729, “Natural dimers of coumarin, chalcones, and resveratrol and the link between structure and pharmacology” (Eur J Med Chem, 2019).

Converted amounts (≈) assume the structure as drawn.

Assay [1] has as its target Glucagon-like peptide 1 receptor (Homo sapiens, UniProt P43220). The experiment in a line: Agonist activity at human GLP1 receptor.
The subject of the next assay is Plasmodium falciparum. The assay is described as follows: Antiplasmodial activity against multidrug-resistant Plasmodium falciparum K1 by [3H]-hypoxanthine incorporation assay. The assay is classed as functional, organism-based.
The next assay concerns the target T1, Cathepsin L2 (Homo sapiens, UniProt O60911).
T1 sequence (O60911 whole entry): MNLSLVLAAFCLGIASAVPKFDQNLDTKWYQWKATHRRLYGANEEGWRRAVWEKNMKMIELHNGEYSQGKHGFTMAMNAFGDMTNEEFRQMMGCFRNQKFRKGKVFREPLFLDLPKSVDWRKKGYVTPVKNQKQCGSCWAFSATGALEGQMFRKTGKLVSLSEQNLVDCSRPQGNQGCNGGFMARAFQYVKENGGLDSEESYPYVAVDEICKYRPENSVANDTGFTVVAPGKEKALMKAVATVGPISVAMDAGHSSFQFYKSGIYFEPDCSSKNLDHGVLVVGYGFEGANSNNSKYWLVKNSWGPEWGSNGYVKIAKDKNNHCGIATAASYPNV
The assay is described as follows: Inhibition of recombinant human cathepsin V using Z-Phe-Arg-7-amido-4-methylcoumarin as substrate by fluorescence assay.

Assay [2] deals with Human immunodeficiency virus type 1 reverse transcriptase (Human immunodeficiency virus 1, UniProt Q72547). The experiment in a line: Inhibition of HIV-1 reverse transcriptase.
Assay [3] deals with T2, Alpha glucosidase (Homo sapiens, UniProt O43451+P10253+P14410+Q2M2H8). The experiment in a line: Inhibition of alpha-glucosidase (unknown origin) using 4-nitrophenyl alpha-D-glucopyranoside as substarte preincubated for 10 mins followed by substrate addition measured after 30 mins. Format: protein assay.
A further assay concerns KB. The experiment in a line: Cytotoxicity against human KB cells assessed as reduction in cell viability. The assay is classed as functional, cell-based.
The next assay concerns NCI-H187. The assay is described as follows: Cytotoxicity against human NCI-H187 cells assessed as reduction in cell viability. The assay is classed as functional, cell-based.
A further assay concerns Saccharomyces cerevisiae. The assay is described as follows: Inhibition of yeast alpha-glucosidase using p-nitrophenyl-alpha-D-glucopyranoside as substarte preincubated for 0.5 hrs followed by substrate addition measured after 0.5 hrs relative to control. The following applies: concentration not given here.
A short description of assay [4]: Inhibition of yeast alpha-glucosidase using p-nitrophenyl-alpha-D-glucopyranoside as substarte preincubated for 0.5 hrs followed by substrate addition measured after 0.5 hrs. Set-up: species or system Saccharomyces cerevisiae.
Assay [5] deals with T2, Alpha glucosidase. The experiment in a line: Inhibition of alpha-glucosidase (unknown origin). The assay is classed as protein assay.
Assay [6] has as its target T3, DNA topoisomerase 2-alpha (Homo sapiens, UniProt P11388). The experiment in a line: Inhibition of topoisomerase 2 (unknown origin).
In assay [7] the target is T3, DNA topoisomerase 2-alpha. The experiment in a line: Inhibition of human topoisomerase 2 by fluorescence method.

T3 sequence (P11388 whole entry): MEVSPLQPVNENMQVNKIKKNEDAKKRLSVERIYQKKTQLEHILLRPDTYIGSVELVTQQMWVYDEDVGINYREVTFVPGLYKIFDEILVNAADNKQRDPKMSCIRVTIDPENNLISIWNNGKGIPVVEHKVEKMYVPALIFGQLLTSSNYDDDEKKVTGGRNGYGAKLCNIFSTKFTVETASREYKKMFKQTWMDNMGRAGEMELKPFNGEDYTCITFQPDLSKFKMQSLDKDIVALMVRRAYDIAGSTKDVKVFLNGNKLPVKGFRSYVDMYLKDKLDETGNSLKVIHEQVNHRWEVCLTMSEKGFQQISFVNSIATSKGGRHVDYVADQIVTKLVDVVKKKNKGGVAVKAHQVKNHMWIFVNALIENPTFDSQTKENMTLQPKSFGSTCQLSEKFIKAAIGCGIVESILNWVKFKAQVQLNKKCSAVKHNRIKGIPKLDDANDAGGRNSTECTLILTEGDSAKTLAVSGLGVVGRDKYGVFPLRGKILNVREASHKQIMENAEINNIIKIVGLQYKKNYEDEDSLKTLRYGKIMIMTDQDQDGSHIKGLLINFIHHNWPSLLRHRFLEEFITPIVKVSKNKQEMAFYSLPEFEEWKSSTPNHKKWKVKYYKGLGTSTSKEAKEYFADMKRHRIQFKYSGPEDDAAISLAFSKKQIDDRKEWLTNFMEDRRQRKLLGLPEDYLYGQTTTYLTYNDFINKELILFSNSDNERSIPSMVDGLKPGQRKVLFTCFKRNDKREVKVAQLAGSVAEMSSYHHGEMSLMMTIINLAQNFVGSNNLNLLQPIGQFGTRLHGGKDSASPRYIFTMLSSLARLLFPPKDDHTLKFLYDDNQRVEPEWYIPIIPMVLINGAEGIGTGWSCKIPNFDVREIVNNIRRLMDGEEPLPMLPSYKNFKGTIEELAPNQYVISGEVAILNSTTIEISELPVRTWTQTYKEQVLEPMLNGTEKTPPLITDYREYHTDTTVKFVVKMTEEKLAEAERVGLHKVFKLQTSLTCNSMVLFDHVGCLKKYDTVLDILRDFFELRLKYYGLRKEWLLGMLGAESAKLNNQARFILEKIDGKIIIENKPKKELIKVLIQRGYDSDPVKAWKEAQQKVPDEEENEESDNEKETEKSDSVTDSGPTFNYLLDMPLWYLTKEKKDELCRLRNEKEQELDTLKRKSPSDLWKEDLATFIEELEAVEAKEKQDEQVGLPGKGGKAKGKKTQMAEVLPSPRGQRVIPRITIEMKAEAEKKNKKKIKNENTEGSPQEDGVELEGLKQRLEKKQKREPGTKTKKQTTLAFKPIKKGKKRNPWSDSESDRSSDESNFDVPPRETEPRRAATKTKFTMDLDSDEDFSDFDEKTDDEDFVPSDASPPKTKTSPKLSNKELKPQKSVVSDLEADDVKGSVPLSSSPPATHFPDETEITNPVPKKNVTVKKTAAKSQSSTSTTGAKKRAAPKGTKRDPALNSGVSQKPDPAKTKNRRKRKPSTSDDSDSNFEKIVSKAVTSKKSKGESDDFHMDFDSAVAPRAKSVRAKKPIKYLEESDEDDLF
Glucagon-like peptide 1 receptor, sequence (P43220 whole entry): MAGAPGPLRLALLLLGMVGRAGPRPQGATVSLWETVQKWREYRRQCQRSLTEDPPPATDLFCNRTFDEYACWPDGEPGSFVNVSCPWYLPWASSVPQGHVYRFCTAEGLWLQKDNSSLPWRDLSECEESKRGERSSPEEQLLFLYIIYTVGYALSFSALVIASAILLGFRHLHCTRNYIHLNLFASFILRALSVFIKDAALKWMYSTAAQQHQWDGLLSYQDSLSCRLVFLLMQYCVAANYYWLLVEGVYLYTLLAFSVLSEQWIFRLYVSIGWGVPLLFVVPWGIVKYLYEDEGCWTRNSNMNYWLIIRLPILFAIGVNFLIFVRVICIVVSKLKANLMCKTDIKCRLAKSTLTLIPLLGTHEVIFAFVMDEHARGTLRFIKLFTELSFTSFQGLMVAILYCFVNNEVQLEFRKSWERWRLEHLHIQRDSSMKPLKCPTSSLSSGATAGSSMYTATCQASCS

As usually defined, the EC50 is the concentration at which the effect is half-maximal. Low values mean an effect from little substance, high ones a need for much substance. As to `COc1cc([C@H]2[C@](NC(=O)c3ccc(NC(=O)C(C)C)cc3)(C(=O)O)[C@@H](c3ccc(OC(=O)c4cccs4)c(OC)c3)[C@]2(NC(=O)c2ccc(NC(=O)C(C)C)cc2)C(=O)O)ccc1OC(=O)c1cccs1`, the EC50 in assay [1] came to 0.203 µM.
The term IC50 denotes the concentration needed to halve the response being measured. The compound `COc1cc(OC)c2c(c1OC)C=C(C(=O)c1ccccc1)C1(C=C(c3ccccc3)Oc3c(OC)c(OC)cc(OC)c31)O2` (stereo unspecified) returned an IC50 in the assay on Plasmodium falciparum of 3.02 to 4.21 µg/mL (≈ 4.96 to 6.92 µM).
On to `O=C(c1ccc(O)cc1O)[C@H]1[C@H](c2ccc(O)cc2)c2cc(O)c(O)cc2[C@H](O)[C@]1(O)C(=O)c1ccc(O)cc1`, for which the IC50 on Cathepsin L2 was 0.42 µM.
In the case of `COc1cc(OC)c(OC)c2c1C[C@H]1[C@@H](/C=C/c3ccccc3)c3c(OC)cc(OC)c(OC)c3O[C@@]1(c1ccccc1)O2`, the IC50 with Plasmodium falciparum is 3.02 to 4.21 µg/mL (≈ 5.06 to 7.06 µM).
Turning to `Oc1ccc(/C=C/c2cc(O)c3c(-c4cc(O)cc(O)c4)c(-c4ccc(O)cc4)oc3c2)cc1`, in assay [2], the concentration for half-maximal inhibition (IC50) turned out to be 8 µM.
Compound `O=c1ccc2ccc(O)c(-c3c(OC4O[C@H](CO)[C@@H](O)[C@H](O)[C@H]4O)ccc4ccc(=O)oc34)c2o1` (stereo partly specified) came in with a 50% inhibitory concentration (IC50) on Alpha glucosidase [3] of 760 µg/mL (≈ 1570 µM).
Regarding `C=CC(C)(C)c1c2c(c(O)c3c1OC(C)(C)C=C3)C=C([C@H]1CC(C)(C)Oc3c1c(O)c1ccc(=O)oc1c3C(C)(C)C=C)CO2`, the half-inhibitory concentration (IC50) in the assay with KB is 5.95 µg/mL (≈ 9.74 µM); in the assay on NCI-H187, 7.1 µg/mL (≈ 11.6 µM).
`COc1cc(OC)c([C@@H]2Oc3c(OC)c(OC)cc(OC)c3[C@H](/C=C/c3ccccc3)[C@@H]2C(=O)c2ccccc2)c(O)c1OC` showed an IC50 in the assay with Plasmodium falciparum of 3.02 to 4.21 µg/mL (≈ 4.93 to 6.87 µM).
As for `COc1cc2cc(Oc3cc(O[C@@H]4O[C@H](CO)[C@@H](O)[C@H](O)[C@H]4O[C@@H]4O[C@H](CO)[C@@H](O)[C@H](O)[C@H]4O)c4ccc(=O)oc4c3)c(=O)oc2cc1O`, the IC50 on Alpha glucosidase [3] worked out at 231 µg/mL (≈ 334 µM).
Consider `COc1cc(OC)c([C@@H]2Oc3c(OC)c(OC)cc(OC)c3[C@@H](/C=C/c3ccccc3)[C@H]2C(=O)c2ccccc2)c(O)c1OC`, for which the concentration for half-maximal inhibition (IC50) in the assay with Plasmodium falciparum fell in the range of 3.02 to 4.21 µg/mL (≈ 4.93 to 6.87 µM).
On the same count and under the same terms, then `COc1cc(OC)c2c(c1OC)O[C@H]1c3c(OC)cc(OC)c(OC)c3O[C@H](c3ccccc3)[C@H]1[C@@H]2/C=C/c1ccccc1` [DEPENDENSIN], with 3.02 to 4.21 µg/mL (≈ 5.06 to 7.06 µM).
Broadly, the inhibition is the change of the read-out against control, counted positive when it falls. A higher inhibition goes with a response far below the control. With `Cc1cc(=O)oc2cc(O)c(-c3c(C)c4ccc(O)cc4oc3=O)cc12`, the inhibition with Saccharomyces cerevisiae was more than 65%. Also, in assay [4], the midpoint of inhibition, the IC50, lay at 36.8 µM.
Taken in the same sequence, the figures for `Cc1c(-c2c(O)ccc3c(C)cc(=O)oc23)c(=O)oc2cc(O)ccc12` were more than 65% and 16.3 µM.
Consider `C=C(C)C(COc1c2occc2c(OC)c2ccc(=O)oc12)OC(C)(C)[C@H](O)COc1c2ccoc2cc2oc(=O)ccc12` (stereo partly specified), for which, on Alpha glucosidase [5], the IC50 lay in the range of 8.8 to 9.8 µM.
For `O=C(/C=C/c1ccc(O)cc1)c1ccc2c(c1O)[C@H](C(=O)c1ccc(O)cc1O)[C@@H](c1ccc(O)cc1)O2`, the figures for the IC50 in assay [6] and in assay [7] were 2.1 µM and 15.3 µM, respectively.
Regarding `O=C(/C=C/c1ccc(O)cc1)c1cc2c(cc1O)O[C@H](c1ccc(O)cc1)[C@H]2C(=O)c1ccc(O)cc1O`, the IC50 in [7] was determined as 14.5 µM.
On Alpha glucosidase [5], `C=C(C)C(COc1c2ccoc2cc2oc(=O)ccc12)OC(C)(C)C(O)COc1c2occc2c(OC)c2ccc(=O)oc12` (stereo unspecified) returned an IC50 of 8.8 to 9.8 µM.
For `O=C(c1ccc(O)cc1O)[C@@H]1[C@H](c2ccc(O)cc2)c2cc(O)c(O)cc2[C@H](O)[C@@H]1C(=O)c1ccc(O)cc1`, on Cathepsin L2, the IC50 was found to be 1.4 µM.
Take `O=C1c2ccc(O)cc2OC2c3cc(O)c(O)cc3[C@@H](c3ccc(O)cc3)[C@@H](C(=O)c3ccc(O)cc3O)C12` (stereo partly specified): the IC50 at Cathepsin L2 was found to be 0.7 µM.
As to `C=C(C)C(COc1c2occc2cc2ccc(=O)oc12)OC(C)(C)[C@H](O)COc1c2ccoc2cc2oc(=O)ccc12` (stereo partly specified), the IC50 at Alpha glucosidase [5] lay in the range of 8.8 to 9.8 µM.
For the compound `COc1cc([C@H]2[C@](NC(=O)c3ccc(NC(=O)OC(C)(C)C)cc3)(C(=O)O)[C@@H](c3ccc(OC(=O)c4cccs4)c(OC)c3)[C@]2(NC(=O)c2ccc(NC(=O)OC(C)(C)C)cc2)C(=O)O)ccc1OC(=O)c1cccs1`, the midpoint of the response in assay [1], the EC50, lay at 0.847 µM.
With `O=c1ccc2ccc(Oc3cc4ccc(O)c(-c5c(OC6O[C@H](CO)[C@@H](O)[C@H](O)[C@H]6O)ccc6ccc(=O)oc56)c4oc3=O)cc2o1` (stereo partly specified), the IC50 on Alpha glucosidase [3] was 780 µg/mL (≈ 1210 µM).
